Data taken from patent US9981037B2, “Combination therapy of beta-glycolipids and antibodies for the treatment of immune-related disorders” (HADASIT MEDICAL RESEARCH SERVICES AND DEVELOPMENT LTD., priority 2008, dated 2018).

Key:
healthy human volunteers = assay: Clinical and laboratory follow-up, CD3+ counts and HAMA in healthy human volunteers; type: in vivo; settings: oral
Experimental: * OKT3 (Orthoclone OKT-3) was purchased from Ortho Biotech Inc. (New Jersey, USA). Antibodies to OKT3 were evaluated on day 30 using the Human Anti-Mouse Antibodies (HAMA)-ELISA kit (MEDAC, Hamburg, Germany).
Healthy males (≥18 years) not on therapy for medical or other illnesses were enrolled in accordance with the guidelines of the Hebrew University-Hadassah Institutional Committee for Human Clinical Trials, and the approval of the Israel Ministry of Health Committee for Human Trials. Of 35 potential study subjects screened 18 met inclusion and exclusion criteria and were randomized to one of the treatment groups.
Nine subjects (3/group) were orally administered 0.2 mg, 1.0 mg or 5.0 mg of OKT3 daily for 5 days and immune parameters measured on days 5, 10 and 30 days (FIG. 12). Six subjects (3/group) received 7.5 mg of beta glucosylceramide in combination with 0.2 mg or 1.0 mg of OKT3 and 3 subjects received GC alone. All subjects were treated with 20 mg of Omeprazole (a proton pump inhibitor) during the 5 days of dosing. […]
All patients underwent a full medical history and physical examination, including review of adverse effects on days 1, 5, 10, and 30, along with complete blood counts, differential, electrolytes, liver and kidney function tests, and lipid profile. C-reactive protein and sedimentation rates were also evaluated. […]

T cells = assay: FACS of activation and regulatory markers on T cells; type: in vivo, human
Experimental: Frozen PBMCs were used for sorting different cell populations, surface staining, and proliferation assays, and cytokine measurements. Cell sorting was performed by thawing […] PBMCs at room temperature (RT) and washing themed twice in medium at RT in 50-ml tubes in a 10-ml volume at 1,400 rpm. Cells were suspended to 20×10^6/ml and stained with seven colors staining of cells using Fc block, Lin-FITC, CD11c-APC, CD123-PE, CD3-Amcyan, CD4-Alexa700, CD25-PB, and 7-AAD was performed. Compensation controls, including an unstained control, were prepared. All samples were washed with medium and filtered into 15-ml tubes with 2 ml volume each to a total volume of 2 ml. CD4+ effector T cells, CD4+ regulatory T cells, myeloid DCs, and plasmacytoid DCs were sorted. Tubes were washed to get retrieve all sticky cells and spin them at 1,400 rpm. All cell populations were put in 350 μl of RLT 350 ul (lysis buffer), and transferred to eppendorff microtubes, and froze at −70° C. RNA was prepared using Qiagen micro kits (Valencia, Calif., USA) and cDNA was prepared using Applied Biosystems kits (Foster City, Calif., USA). We performed real-time PCR (RT-PCR) for different genes on in regulatory T cells, effector T cells, and DCs was performed.
For surface staining, one tube of frozen PBMCs was thawed at room temperature (RT) and washed twice in medium at RT in 50-ml tubes (10-ml volume) at 1,400 rpm. Cells were re-suspended cells at 8-10×10^6 cells/ml and 100 μl was aliquoted into each of 100 ul in 11 wells. For LAP+ cells (two wells), controls wells were preincubated with rLAP for 20 mins, and seven-colors staining of cells using CD3-Amcyan, CD4-Alexa700, CD8-APC, CD25-PB, and LAP-PE for 40 mins was preformed for 40 minutes. Cells were washed and stained with Annexin FITC and 7-AAD in Annexing binding buffer for 15 minutes. Cells were washed and analyzed immediately in Annexin Binding Buffer.
For Foxp3 surface staining (two wells), surface six-colors staining of cells using CD3-Amcyan, CD4-Alexa700, CD8-APC, and CD25-PB were performed for 30 minutes. Intracellular staining for IC/Foxp3-PE from eBiosciences was followed. For all other surface markers (7wellsseven wells), seven—color staining of cells was performed, using CD3-Amcyan, CD4-Alexa700, CD8-APC, CD25-PB, and Annexin FITC, 7-AAD, and IC/CD62L/CD69/CD45RO/CD127/CD28/HLA-DR-PE was performed. Cells were then washed Wash twice and Fix fixed the cells with 0.1% paraformaldehyde. Compensation controls, including an unstained control, were prepared. (Lin-FITC, CD11c-APC, CD123-PE, and CD3-Amcyan were tested in 1 μl/100 μl; CD4-Alexa700, CD25-PB, and 7-AAD were tested in 0.5 ul/100 μl; and LAP-PE, and Annexin-FITC were tested in 3 ul/100 μl).
For surface staining, freshly isolated PBMCs were suspended at 8-10×10^6 cells/ml. Surface two to three colors staining of cells were done with the following surface antibodies: CD4-FITC/CD25-PE, CD8− FITC/CD25-PE, CD3-APC/CD69-PE, CD11c-APC/Lin-FITC/CD86-PE, CD11c-APC/Lin-FITC/CD83-PE, CD11c-APC/Lin-FITC/HLAdr-PE. For LAP staining cells were preincubated with rLAP/control antibody for 20 mins, and stained with CD4-FITC and CD25-PE or CD8-FITC. […]
The inventors next investigated activation of markers and markers associated with regulation on T cells following oral OKT3 treatment. Regulatory T cells were measured by CD25hi, and effector cells were measured by CD25int/lo markers. […]

“OKT3: murine monoclonal anti-CD3 antibody (Orthoclone OKT-3, Ortho Biotech)” was tested, and the “CD3+ lymphocyte counts or modulation of CD3 from the T cell surface” value (healthy human volunteers) was “no decrease”, the “anti-OKT3 (HAMA) antibodies” value (healthy human volunteers; day 30) was “no subject developed” and the “subjects with similar pattern (increase) for CD8+CD25+ T cells” value (T cells; 0.2 mg oral, not shown) was “two subjects”. The “CD4+CD25+ and CD8+CD25+ T cells” value (T cells; 1.0 mg fed group) was “increase”, the “CD25hi Foxp3+ cells and CD25hi CTLA4 cells” value (T cells; 1.0 mg oral) was “increase” and the “expression of TGF-β on CD25int/lo T cells” value (T cells; 1.0 mg oral) was “increase”. The “subjects with similar pattern (increase) for CD8+CD25+ T cells” value (T cells; 1.0 or 5.0 mg oral) was “all six subjects”.
